In patent publication US5294724A, “4-hydroxytetrahydropyran-2-ones and the corresponding dihydroxycarboxylic acid derivatives, salts and esters and a process for their preparation” (priority 1989, dated 1994):

Assays:
HMG-CoA reductase = target: T1, HMG-CoA reductase (Rattus norvegicus, UniProt P51639); experiment: Inhibition of HMG-CoA reductase activity in solubilized enzyme preparations from rat liver microsomes; format: biochemical; conditions: sodium salts of the dihydroxycarboxylic acids; mean of 3 parallel samples; read-out: IC50 (molar concentration necessary for a 50% inhibition)
T1 construct: solubilized enzyme preparations from liver microsomes of rats; from tissue; host or cells: rat liver microsomes (cholestyramine-induced rats), solubilized
T1 sequence (P51639 1-887): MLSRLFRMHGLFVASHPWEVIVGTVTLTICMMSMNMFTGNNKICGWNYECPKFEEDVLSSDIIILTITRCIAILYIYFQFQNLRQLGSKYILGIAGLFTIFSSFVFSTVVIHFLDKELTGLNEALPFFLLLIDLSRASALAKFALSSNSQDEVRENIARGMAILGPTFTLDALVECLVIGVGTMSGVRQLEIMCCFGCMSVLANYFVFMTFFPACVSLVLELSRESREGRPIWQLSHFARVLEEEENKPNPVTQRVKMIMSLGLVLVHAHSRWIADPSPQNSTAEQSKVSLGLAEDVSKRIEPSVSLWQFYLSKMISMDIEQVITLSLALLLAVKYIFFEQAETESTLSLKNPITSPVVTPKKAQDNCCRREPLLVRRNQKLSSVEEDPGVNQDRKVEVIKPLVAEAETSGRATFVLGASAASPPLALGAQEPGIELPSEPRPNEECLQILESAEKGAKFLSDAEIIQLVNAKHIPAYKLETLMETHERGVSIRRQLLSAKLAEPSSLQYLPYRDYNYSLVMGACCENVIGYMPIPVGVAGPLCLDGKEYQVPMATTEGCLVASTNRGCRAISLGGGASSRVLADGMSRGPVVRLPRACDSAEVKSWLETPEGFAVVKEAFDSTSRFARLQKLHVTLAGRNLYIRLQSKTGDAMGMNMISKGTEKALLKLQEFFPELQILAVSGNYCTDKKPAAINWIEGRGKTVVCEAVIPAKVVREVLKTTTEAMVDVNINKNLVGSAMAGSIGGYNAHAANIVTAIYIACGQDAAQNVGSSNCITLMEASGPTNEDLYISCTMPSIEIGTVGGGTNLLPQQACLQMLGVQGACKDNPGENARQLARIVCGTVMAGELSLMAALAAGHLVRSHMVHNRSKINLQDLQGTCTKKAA
Experimental: 1) Inhibition of HKG-CoA reductase activity in solubilized enzyme preparations from rat liver microsomes
HMG-CoA reductase activity was measured on solubilized enzyme preparations from liver microsomes of rats which had been induced by conversion into the day/night rhythm using cholestyramine (®Cuemid). (S,R)^14 C-HMG-CoA was used as a substrate, and the concentration of NADPH was maintained during the incubation by a regenerating system. The separation of ^14 C-mevalonate from substrate and other products (for example ^14 C-HMG) was carried out by column elution, the elution profile of each individual sample being determined. The regular addition of ^3 H-mevalonate was avoided as the determination gives the data relative to the inhibitory action. The enzyme-free control, the enzyme-containing normal mixture (=100%) and those containing preparation additives were in each case treated together in one series of experiments. The sodium salts of the dihydroxycarboxylic acids of the formula II were always employed as the preparation in this test. Each individual value was formed as the mean value of 3 parallel samples. The significance of the mean value differences between preparation-free and preparation-containing samples was evaluated by the t-test.

HEP G2 cells = experiment: Inhibition of cholesterol biosynthesis in cell cultures (HEP G2 cells), incorporation of 14C-sodium acetate in cholesterol; format: cell-based; conditions: for IC50: Homo sapiens, HepG2, sodium salts, test compounds corrected by deviation of mevinolin sodium from its mean value, read-out: IC50 (concentration necessary for a 50% inhibition); for Relative potency in %: mevinolin sodium = 100, from IC50
Experimental: 2) Inhibition of cholesterol biosynthesis in cell cultures (EEP G2 cells)
Determination of the inhibition of the incorporation of ^14 C-sodium acetate in cholesterol
Monolayers of HEP G2 cells in lipoprotein-free medium were preincubated with various concentrations of the sodium salts of the dihydroxycarboxylic acids of the formula II for 1 hour. After adding ^14 C-labeled sodium acetate, the incubation was continued for 3 hours. Tritium-labeled cholesterol was added as an internal standard and an aliquot of the cells was subjected to alkaline hydrolysis. The lipids were extracted using chloroform/methanol 2: 1. After adding carrier cholesterol, the lipid mixture was preparatively separated on TLC plates using chloroform/acetone 9: 1. The cholesterol zone was made visible by staining with iodine vapor, additionally detected using a TLC radio scanner and then scraped off. The amount of ^14 C-cholesterol formed was determined scintigraphically and related to mg of cell protein. The same procedure was carried out with cells from the Bame culture without preincubation with a test compound (so-called "solvent control"). The potency of the test compounds was determined by comparison of the biosynthesized ^14 C-cholesterol in test runs and in "solvent control".

[1] = test system: microsomal lipid peroxidation; experiment: Inhibition of microsomal lipid peroxidation (in vitro); format: biochemical; conditions: for IC50: microsomes, read-out: IC50 (50% inhibition of lipid peroxidation)
Experimental: 5) Inhibition of microsomal lipid peroxidation (in vitro)
The inhibition of lipid peroxidation was measured under the experimental conditions described by H. Wafers and H. Sies, Eur. J. Biochem. 174, 353-357 (1988). The microsomes were obtained according to the literature cited therein. IC50 denotes the concentration of the test compound in moles per liter which causes a 50% inhibition of lipid peroxidation.

serum lipoproteins = experiment: Action on serum lipoproteins and other metabolic parameters of male rats in the subchronic test; format: in vivo; conditions: rat; for Body weight, % changes in the mean value relative to starting / Glycerol VLDL, % change compared to control / Liver weight, % changes in the mean value relative to control / Protein LDL, % change compared to control / Protein VLDL, % change compared to control / Total cholesterol HDL, % change compared to control / Total cholesterol LDL, % change compared to control / Total cholesterol VLDL, % change compared to control / Food consumption, % changes in the mean value relative to control: 7 administrations; for Cholesterol HDL/LDL: control standardization to 1.00
Experimental: 3) Action on serum lipoproteins and other metabolic parameters of male rats in the subchronic test
Groups of male rats of the strain HOE: WISKf (SPF 71) having a starting weight of above 180 g received the test preparations daily in the morning (sodium salts of the dihydroxycarboxylic acids of the formula II) in polyethylene glycol 400 by stomach tube; the respective control group received only the vehicle. The last (7th) administration was carried out 24 hours before taking blood and sacrificing. There was free access to food and water during the experiment. 24 hours before taking blood, which wall carried out retroorbitally under slight ether anesthesia before and after the treatment period (i.e. on the 1st and 8th day), the food was withdrawn. Total cholesterol was determined in the serum of each individual animal [CHODPAP high performance method of Boehringer Mannheim], and, as a measure of the triglycerides, total glycerol was also determined analytically from the serum pool of all the animals of one group [GPO-PAP high performance method, Boehringer Mannheim].
Immediately after taking blood, the animals were sacrificed by dislocation of the spine, and the relative liver weight, the change in body weight and the food consumption were determined.
For the analysis of the serum lipoproteins, the serum of all the rats of one group was pooled. The serum lipoproteins were separated using the preparative ultracentrifuge.
The following conditions were used for the separation of the fractions VLDL, LDL and HDL:
The determination of the protein was carried out by the method of Lowry et al. [LOWRY O. H., ROSEBOROUGH, N.J., PARR, A. L. and RANDELL, R. J.: J. Biol. Chem. 193, 265 (1951)].

LDL = experiment: Inhibition of Cu2+-catalyzed LDL oxidation in vitro; format: biochemical, porcine; conditions: 5 μM Cu2+, 2 hours at 37° C.; for IC50: fluorescence 430 nm, read-out: IC50 (50% inhibition of LDL oxidation)
Experimental: 6) Inhibition of Cu^2+ -catalyzed LDL oxidation in vitro LDL was isolated from porcine plasma which contained EDTA (1 mg/ml) by ultracentrifugation in salt solutions of NaCl/NaBr between the densities 1.019 and 1.063 g/ml (cf. R. J. Havel et al., J. Clin. Invest. 43, 1345 (1955)). LDL was then dialyzed against phosphate-buffered saline (160 mM NaCl, 10 mM NaH2 PO4), pH 7.4 and stored under nitrogen at 4° C. Before the oxidation process, the LDL fractions were diluted to a final protein concentration of 0.1 mg/ml using phosphate-buffered saline and 2.5 ml aliquot parts were pre-incubated under nitrogen with the test compounds (25 μl of ethanolic solution) for 1 hour at 37° C. (cf. McLean et al., Biochemistry 1989, 28, 321). For the Cu^2+ -catalyzed oxidation of LDL, 12.5 μl of a 1 mM CuSO4 solution were added to each sample, a 5 μM Cu^2+ concentration resulting. The incubation was carried out for 2 hours at 37° C. and in an air atmosphere. The fluorescence intensity was measured at 430 nm (excitation wavelength 365 nm) (cf. Steinbrecher, U. P., J. Biol. Chem. 1987, 262, 3603). […] In addition, the inhibition using a 10^-5 N concentration of the test compound is indicated in %.

[2] = 100 mg/kg daily by stomach tube

SMILES | IC50 (HMG-CoA reductase) [nM] | IC50 (HEP G2 cells) [nM] | IC50 (LDL) [nM] | IC50 [1] [nM] | Relative potency in % (HEP G2 cells) [%] | Inhibition at 10^-5 mol/l [1] [%] | other results
Cc1cc(-c2cc(Sc3ccc(F)cc3)cc(C(C)C)c2OC[C@@H](O)C[C@@H](O)CC(=O)O)ccc1F [Example 3] | 4 | 3.8 | – | – | 1316 | – | –
CC(C)c1cc(SC(C)(C)Sc2cc(-c3ccc(F)cc3)c(OC[C@@H](O)C[C@@H](O)CC(=O)O)c(C(C)C)c2)cc(-c2ccc(F)cc2)c1OC[C@@H](O)C[C@@H](O)CC(=O)O [Example 7, 4,4-(Isopropylidenedithio)-bis-<{1-[(2S,4R)-dihydroxy-5-sodiocarboxy]pentoxy-2-isopropyl-6-p-fluorophenyl}benzene>] | 1 | 920 | – | – | 5 | < 10 | Body weight, % changes in the mean value relative to starting (serum lipoproteins; [2]): +5%; Glycerol VLDL, % change compared to control (serum lipoproteins; [2]): -3%; Liver weight, % changes in the mean value relative to control (serum lipoproteins; [2]): -1%; Protein LDL, % change compared to control (serum lipoproteins; [2]): -8%; Protein VLDL, % change compared to control (serum lipoproteins; [2]): -15%; Total cholesterol HDL, % change compared to control (serum lipoproteins; [2]): +9%; Total cholesterol LDL, % change compared to control (serum lipoproteins; [2]): -52%; Total cholesterol VLDL, % change compared to control (serum lipoproteins; [2]): -23%; Cholesterol HDL/LDL (serum lipoproteins; 100 mg/kg daily): 2.25
CC(=O)Oc1c(C(C)C)c(-c2ccc(F)cc2)c(O)c(C(C)C)c1C(C)C [Process Example 25, 2,3,5-Triisopropyl-4-acetoxy-6-(p-fluorophenyl)phenol] | – | – | 150 | 4800 | – | 83 | –
CC(C)Sc1cc(-c2ccc(F)cc2)c(OC[C@@H](O)C[C@@H](O)CC(=O)O)c(C(C)C)c1 [Example 5, Sodium 3(R),S(S)-dihydroxy-6-[(2-p-fluorophenyl-4-isopropylthio-6-isopropyl)phenoxy]hexanoate] | 8 | 9.2 | – | – | 543 | 0 | –
O=C(O)C[C@H](O)C[C@H](O)COc1c(-c2ccc(F)cc2)cc(Sc2ccc(F)cc2)cc1C1CC1 [Example 2] | 2 | 2.2 | – | – | 2273 | < 10 | –

The next lines start with results.

IC50 (HMG-CoA reductase) [nM] | IC50 (HEP G2 cells) [nM] | IC50 (LDL) [nM] | IC50 [1] [nM] | SMILES | Relative potency in % (HEP G2 cells) [%] | Inhibition at 10^-5 mol/l [1] [%] | other results
– | – | 1000 | 3000 | CC(C)c1cc(Sc2ccc(F)cc2)cc(-c2ccc(F)cc2)c1O [Process Example 6, 2-(p-Fluorophenyl)-4-(p-fluorophenylthio)-6-isopropylphenol] | – | 95 | –
3 | 1700 | – | 2700 | CC(C)c1cc(SC(C)(C)Sc2cc(-c3ccc(F)cc3)c(OC[C@@H](O)C[C@@H](O)CC(=O)O)c(C(C)C)c2)cc(-c2ccc(F)cc2)c1O [Example 6, Sodium 3(R),5(S)-dihydroxy-6-(2-isopropyl-4-[(3-isopropyl-4-sodio-oxy-5-p-fluorophenyl-l-phenylthio)-2-propyl-2-thio]-6-p-fluorophenylphenoxy)hexanoate] | 3 | 98 | Body weight, % changes in the mean value relative to starting (serum lipoproteins; 30 mg/kg daily by stomach tube): +5%; Food consumption, % changes in the mean value relative to control (serum lipoproteins; 30 mg/kg daily by stomach tube): -1%; Glycerol VLDL, % change compared to control (serum lipoproteins; 30 mg/kg daily by stomach tube): +8%; Liver weight, % changes in the mean value relative to control (serum lipoproteins; 30 mg/kg daily by stomach tube): +3%; Protein LDL, % change compared to control (serum lipoproteins; 30 mg/kg daily by stomach tube): -24%; Protein VLDL, % change compared to control (serum lipoproteins; 30 mg/kg daily by stomach tube): -4%; Total cholesterol HDL, % change compared to control (serum lipoproteins; 30 mg/kg daily by stomach tube): +13%; Total cholesterol LDL, % change compared to control (serum lipoproteins; 30 mg/kg daily by stomach tube): -26%; Total cholesterol VLDL, % change compared to control (serum lipoproteins; 30 mg/kg daily by stomach tube): +12%; Cholesterol HDL/LDL (serum lipoproteins; 30 mg/kg daily): 1.27; Body weight, % changes in the mean value relative to starting (serum lipoproteins; [2]): +5%; Food consumption, % changes in the mean value relative to control (serum lipoproteins; [2]): -1%; Glycerol VLDL, % change compared to control (serum lipoproteins; [2]): -8%; Liver weight, % changes in the mean value relative to control (serum lipoproteins; [2]): +1%; Protein LDL, % change compared to control (serum lipoproteins; [2]): +3%; Protein VLDL, % change compared to control (serum lipoproteins; [2]): -2%; Total cholesterol HDL, % change compared to control (serum lipoproteins; [2]): -3%; Total cholesterol LDL, % change compared to control (serum lipoproteins; [2]): -16%; Total cholesterol VLDL, % change compared to control (serum lipoproteins; [2]): +13%; Cholesterol HDL/LDL (serum lipoproteins; 100 mg/kg daily): 1.15
2 | 4 | 1100 | – | CC(C)c1c(O)c(C(C)C)c(C(C)C)c(OC[C@@H](O)C[C@@H](O)CC(=O)O)c1-c1ccc(F)cc1 [Example 8] | 1250 | 27 | –
– | – | > 10000 | – | CC(C)c1cc(Sc2ccc(F)cc2)cc(-c2ccc(F)cc2)c1OC[C@@H]1C[C@@H](O)CC(=O)O1 [Example 10, 4(R)-Hydroxy-6(S)-[(2-p-fluorophenyl-4-p-fluorophenylthio-6-isopropyl)phenoxymethyl]-3,4,5,6-tetrahydro-2H-pyran-2-one] | – | – | Inhibition at 10^-5 M (LDL; 10^-5 M): 23%
